Data taken from BindingDB's records for doi:10.1021/jm980334n (University of New Mexico School of Medicine, 1998).

What follows are compounds tested against L-lactate dehydrogenase (Plasmodium falciparum) (UniProt Q27743) (assay: inhibitory activity against Plasmodium falciparum LDH (pLDH)).

Point of comparison: `Cc1ccc2c(C(=O)O)c(O)c(O)c(C)c2c1` [2,3-Dihydroxy-4,6-dimethyl-naphthalene-1-carboxylic acid], Ki 22 µM. Against it:
- Cc1cc2c(C)c(O)c(O)c(C(=O)O)c2cc1C [2,3-Dihydroxy-4,6,7-trimethyl-naphthalene-1-carboxylic acid] — 1.7-fold lower, 13 µM
- Cc1cc2c(C(=O)O)c(O)c(O)c(C(C)C)c2cc1C [2,3-Dihydroxy-4-isopropyl-6,7-dimethyl-naphthalene-1-carboxylic acid] — 22-fold lower, 1 µM
- Cc1cc2c(C(C)C)c(O)c(O)c(C(=O)O)c2cc1Cc1ccc(C(F)(F)F)cc1 [2,3-Dihydroxy-4-isopropyl-6-methyl-7-(4-trifluoromethyl-benzyl)-naphthalene-1-carboxylic acid] — 110-fold lower, 0.2 µM
- Cc1ccc2c(C(=O)O)c(O)c(O)c(C(C)C)c2c1 [2,3-Dihydroxy-4-isopropyl-6-methyl-naphthalene-1-carboxylic acid] — 11-fold lower, 2 µM
- CCCc1c(O)c(O)c(C(=O)O)c2ccc(C)cc12 [2,3-Dihydroxy-6-methyl-4-propyl-naphthalene-1-carboxylic acid] — 3.7-fold lower, 6 µM
- Cc1cc2c(C)c(O)c(O)c(C(=O)O)c2cc1Cc1ccccc1 [7-Benzyl-2,3-dihydroxy-4,6-dimethyl-naphthalene-1-carboxylic acid] — 2.8-fold lower, 8 µM
- Cc1cc2c(C(C)C)c(O)c(O)c(C(=O)O)c2cc1Cc1ccccc1 [7-Benzyl-2,3-dihydroxy-4-isopropyl-6-methyl-naphthalene-1-carboxylic acid] — 31-fold lower, 0.7 µM
